Legend:
Test in all cases: relative viability (nuclei count vs DMSO), 5 days (fraction); higher = more cells survive
[1] = tested on: HCC-44
Method in brief: (§1)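 A single step with final 0.05% Triton X-100, 1% formaldehyde and 1 ug/ml Hoechst fixed the cells and stained nuclei 5 days after treatment. Lung cancer cell lines in 1536-well plates had been treated by pin tool the day after seeding with one drug alone or a fixed anchor-drug dose plus five library-drug doses (not always all listed) in √10 steps, and nuclei were counted on 4× images. Relative viability is the ratio of nuclei in treated wells to nuclei in vehicle wells, taken as the median of duplicate plates.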

[2] = tested on: NCI-H1703
Method in brief: as §1

[3] = tested on: NCI-H2087
Method in brief: as §1

[4] = tested on: NCI-H1648
Method in brief: as §1

[5] = tested on: HCC-78
Method in brief: as §1

[6] = tested on: NCI-H322M
Method in brief: as §1

[7] = tested on: A549
Method in brief: as §1

[8] = tested on: IA-LM
Method in brief: as §1

Row | SMILES | relative viability ([1]; first compound 0.002 µM) | relative viability ([1]; first compound 0.006325 µM) | relative viability ([1]; first compound 0.02 µM) | relative viability ([1]; first compound 0.06325 µM) | relative viability ([1]; first compound 0.2 µM) | relative viability ([2]; first compound 0.002 µM) | relative viability ([2]; first compound 0.006325 µM) | relative viability ([2]; first compound 0.02 µM) | relative viability ([2]; first compound 0.06325 µM) | relative viability ([2]; first compound 0.2 µM) | relative viability ([3]; first compound 0.002 µM) | relative viability ([3]; first compound 0.006325 µM) | relative viability ([3]; first compound 0.02 µM) | relative viability ([3]; first compound 0.06325 µM) | relative viability ([3]; first compound 0.2 µM) | relative viability ([4]; first compound 0.002 µM) | relative viability ([4]; first compound 0.006325 µM) | relative viability ([4]; first compound 0.02 µM) | relative viability ([4]; first compound 0.06325 µM) | relative viability ([4]; first compound 0.2 µM) | relative viability ([5]; first compound 0.002 µM) | relative viability ([5]; first compound 0.006325 µM) | relative viability ([5]; first compound 0.02 µM) | relative viability ([5]; first compound 0.06325 µM) | relative viability ([5]; first compound 0.2 µM) | relative viability ([6]; first compound 0.002 µM) | relative viability ([6]; first compound 0.006325 µM) | relative viability ([6]; first compound 0.02 µM) | relative viability ([6]; first compound 0.06325 µM) | relative viability ([6]; first compound 0.2 µM) | relative viability ([7]; first compound 0.002 µM) | relative viability ([7]; first compound 0.006325 µM) | relative viability ([7]; first compound 0.02 µM) | relative viability ([7]; first compound 0.06325 µM) | relative viability ([7]; first compound 0.2 µM) | relative viability ([8]; first compound 0.002 µM) | relative viability ([8]; first compound 0.006325 µM) | relative viability ([8]; first compound 0.02 µM) | relative viability ([8]; first compound 0.06325 µM) | relative viability ([8]; first compound 0.2 µM)
1 | CCNC(=O)c1noc(-c2cc(C(C)C)c(O)cc2O)c1-c1ccc(CN2CCOCC2)cc1 [Luminespib] + NC(=O)Nc1cc(-c2cccc(F)c2)sc1C(=O)N[C@H]1CCCNC1 [AZD7762] (partner 0.2 µM) | 1.04 | 0.995 | 1.15 | 1.07 | 0.959 | 0.146 | 0.114 | 0.149 | 0.115 | 0.114 | 1.34 | 1.1 | 1.45 | 0.19 | 0.117 | 0.529 | 0.603 | 0.875 | 0.702 | 0.286 | 0.562 | 0.591 | 0.536 | 0.497 | 0.333 | 0.585 | 0.485 | 0.441 | 0.376 | 0.391 |  |  |  |  |  |  |  |  |  | 
2 | CCNC(=O)c1noc(-c2cc(C(C)C)c(O)cc2O)c1-c1ccc(CN2CCOCC2)cc1 [Luminespib] + Nc1ncn([C@H]2C[C@H](O)[C@@H](CO)O2)c(=O)n1 [Decitabine] (partner 2 µM) | 0.969 | 0.953 | 0.959 | 0.954 | 0.863 |  |  |  |  |  | 0.25 | 0.235 | 0.189 | 0.145 | 0.101 | 0.534 | 0.569 | 0.458 | 0.489 | 0.301 | 0.644 | 0.611 | 0.666 | 0.725 | 0.448 | 0.681 | 0.624 | 0.711 | 0.509 | 0.499 | 0.232 | 0.297 | 0.191 | 0.0306 | 0.0224 |  |  |  |  | 
3 | CCNC(=O)c1noc(-c2cc(C(C)C)c(O)cc2O)c1-c1ccc(CN2CCOCC2)cc1 [Luminespib] + O=C(CCCCCCC(=O)Nc1ccccc1)NO [Vorinostat] (partner 1 µM) | 1.1 | 1.13 | 1.19 | 1.11 | 0.924 |  |  |  |  |  | 0.667 | 0.609 | 0.656 | 0.111 | 0.122 | 0.299 | 0.502 | 0.344 | 0.566 | 0.348 | 0.381 | 0.426 | 0.283 | 0.519 | 0.356 | 0.83 | 0.407 | 0.736 | 0.486 | 0.417 |  |  |  |  |  | 0.918 | 0.934 | 0.64 | 0.077 | 0.0416
